In patent US5726203A, “Qinghaosu derivatives against AIDS” (priority 1993, dated 1998):
Like-named read-outs stand apart in the source and are kept apart here.

Tested on: Toxoplasma Gendei
Assay: Antitoxoplasma effect in vitro in BALB/C mouse macrophages
Format: cell-based
Settings: for Infected rate of macrophages / No. of parasites in 100 macrophages / inhibition at 50 µg/mL / inhibition at 100 µg/mL / inhibition at 200 µg/mL: 48 hours; for Infected rate of macrophages: control 75.60; for No. of parasites in 100 macrophages: control 544.00; for inhibition at 50 µg/mL / inhibition at 100 µg/mL / inhibition at 200 µg/mL: Toxoplasma, Macrophage
Protocol: In vitro incubation was used in the experiment. Macrophages were taken from intraperitoneal of the uninfected BALB/C mice (obtained from Universite Pierre et Marie Curie), centrafuged, washed and counted. Around 1.28×10^5 cells was added into each culture dish, incubated at 37° C. for 3 hours to let the cells to be adherented, then infected by parasites (Toxoplasma Gendei, obtained from Universite Pierre et Marie Curie), in which parasite number was 1×106, so that there were 5 organisms per macrophage. The dishes were incubated at 37° C. for 48 hours, different concentration, (i.e., 50 μg/ml, 100 μg/ml, 200 μg/ml) of the compound according to the present invention was added in. In a control group, no drug was added in. After being cultured at 37° C. for 48 hours, dishes of compound treated groups and control group were colorated. Under microscope, the number of infected and uninfected macrophages in each dishes were counted and to calculated infected rate of macrophage and to count the number of parasites in 100 macrophages.

Structure (SMILES): CNC(=O)OC1OC2OC3(C)CCC4C(C)CCC(C1C)C24OO3 (stereo not shown) [Dihydroqinghaosu-methylcarbamate, Dihydroqinghaosu-Methylcarbamate]
- Infected rate of macrophages (50 μg/ml): 0.67
- No. of parasites in 100 macrophages (50 μg/ml): 2.67
- Infected rate of macrophages (100 μg/ml): 0
- No. of parasites in 100 macrophages (100 μg/ml): 0
- Infected rate of macrophages (200 μg/ml): 0
- No. of parasites in 100 macrophages (200 μg/ml): 0
- inhibition at 50 µg/mL (50 μg/ml, read-out: Inhibition rate (No. of parasites in 100 macrophages)): 99.5%
- inhibition at 50 µg/mL (50 μg/ml, read-out: Inhibition rate (infected rate of macrophages)): 99.1%
- inhibition at 100 µg/mL (100 μg/ml, read-out: Inhibition rate (No. of parasites in 100 macrophages)): 100%
- inhibition at 100 µg/mL (100 μg/ml, read-out: Inhibition rate (infected rate of macrophages)): 100%
- inhibition at 200 µg/mL (200 μg/ml, read-out: Inhibition rate (No. of parasites in 100 macrophages)): 100%
- inhibition at 200 µg/mL (200 μg/ml, read-out: Inhibition rate (infected rate of macrophages)): 100%
- inhibition on Toxoplasma Gendei in vitro (in words): obvious inhibition on Toxoplasma Gendei in vitro
